*1 amine or outer side, *2 acyl side, *3 side chain or, on linkers, in order; H or OH if unused. Where a SMILES comes first, the peptide text is derived from it. [ ]: non-standard residue; d: D form. X1 = O=C([C@H](CSS(=O)(=O)O)N[*:1])[*:2]
Tests used:
[1] = Stability test in liquid form (residual amount by reverse HPLC); format: physicochemical; conditions: 37° C., 2 weeks, compared to native salmon calcitonin-I
Protocol: First, 50 μg each of the diS-sulfonated salmon calcitonin-I and salmon calcitonin-I were separately dissolved in 100 μl of 50 mM Tris-Hcl buffer solution (pH 7.2), and the solutions were stored at 37° C. After 2 weeks, the residual diS-sulfonated salmon calcitonin-I and salmon calcitonin-I were measured by reverse HPLC.

[2] = Stability test in frozen state (residual amount by reverse HPLC); format: physicochemical; conditions: -80° C., 5 months, compared to native calcitonin-I
Protocol: First, 50 μg each of the diS-sulfonated salmon calcitonin-I and salmon calcitonin-I were separately dissolved in 100 μl of 2.5 mM citrate (pH 2.8) buffer, and the solutions were frozen and stored at -80° C. After 5 months, the frozen samples were thawed, and residual diS-sulfonated salmon calcitonin-I and salmon calcitonin-I were measured by reverse HPLC.

- Stability in a solution (in words) [1]: remarkably stable
- Stability in the frozen state (in words) [2]: remarkably stable
Structure (SMILES): CC(C)C[C@H](NC(=O)[C@H](CCCCN)NC(=O)CNC(=O)[C@H](CC(C)C)NC(=O)[C@@H](NC(=O)[C@H](CSS(=O)(=O)O)NC(=O)[C@@H](NC(=O)[C@H](CO)NC(=O)[C@H](CC(C)C)NC(=O)[C@H](CC(N)=O)NC(=O)[C@H](CO)NC(=O)[C@@H](N)CSS(=O)(=O)O)[C@@H](C)O)C(C)C)C(=O)N[C@@H](CO)C(=O)N[C@@H](CCC(N)=O)C(=O)N[C@@H](CCC(=O)O)C(=O)N[C@@H](CC(C)C)C(=O)N[C@@H](Cc1c[nH]cn1)C(=O)N[C@@H](CCCCN)C(=O)N[C@@H](CC(C)C)C(=O)N[C@@H](CCC(N)=O)C(=O)N[C@H](C(=O)N[C@@H](Cc1ccc(O)cc1)C(=O)N1CCC[C@H]1C(=O)N[C@@H](CCCNC(=N)N)C(=O)N[C@H](C(=O)N[C@@H](CC(N)=O)C(=O)N[C@H](C(=O)NCC(=O)N[C@@H](CO)C(=O)NCC(=O)N[C@H](C(=O)N1CCC[C@H]1C(N)=O)[C@@H](C)O)[C@@H](C)O)[C@@H](C)O)[C@@H](C)O [diS-sulfonated salmon calcitonin-I] (H-[X1]SNLST[X1]VLGKLSQELHKLQTYPRTNTGSGTP-NH2)

Source: patent publication US5153308A, “S-sulfonated calcitonin derivatives” (Teijin Limited, priority 1988, dated 1992)
